Source: ChEMBL document CHEMBL1141353, “Three biscembranoids and their monomeric counterpart cembranoid, a biogenetic Diels-Alder precursor, from the soft coral Sarcophyton elegans” (J Nat Prod, 2007)
The source made the active and inactive calls. The rule behind the calls is not given here.

Columns and labels:
[1] = system: Escherichia coli; test: Antibacterial activity against Escherichia coli at 1.5 ug/ml; assay type: functional, organism-based
[2] = Toxicity in brine shrimp assessed as survival rate after 24 hrs; assay type: organism-based; details: artemia salina, in vivo

SMILES | Activity [1] | LC50 at 24 h [2] [µM]
COC(=O)[C@]12CC(=O)[C@H](C(C)C)CC(=O)[C@H](C)CCC[C@H](C)CC(=O)[C@H]1CC(C)=C1C[C@H](O)[C@@]3(C)O[C@@H](CC/C(C)=C/[C@@H]12)[C@@]1(C)CC[C@@H]3O1 | Active | –
COC(=O)[C@]12CC(=O)[C@H](C(C)C)CC(=O)[C@H](C)CCC[C@H](C)CC(=O)[C@H]1CC(C)=C1C[C@H](O)[C@]3(C)O[C@@H]3CC[C@]3(C)O[C@@H]3CC/C(C)=C/[C@@H]12 [DIEPOXYNYALOLIDE] | – | 1.5
COC(=O)/C1=C/C(=O)C[C@@H](C)CCC[C@@H](C)C(=O)C[C@@H](C(C)C)C(=O)C1 [METHYL TETRAHYDROSARCOATE] | – | 1.5
